Source: patent US20240082282A1 (priority 2020, published 2024)
In brackets after ≈: the same amount, converted by molar mass. Read-outs that look alike come from different tables or passages of the source.

Experiments:
[1] = tested on: Fusobacterium nucleatum KLE 2428; type: cell-based; settings: Fusobacterium nucleatum KLE 2428, anaerobic, stool isolate
[2] = tested on: Clostridium perfringens KLE 2326; test: microbe, parasite or virus in culture; type: cell-based
[3] = tested on: Staphylococcus aureus HG003; type: cell-based
[4] = tested on: Staphylococcus epidermidis KLE 2378; type: cell-based; settings: Staphylococcus epidermidis KLE 2378, anaerobic, stool isolate
Escherichia coli MG1655 = type: cell-based
[5] = tested on: Salmonella typhimurium LT2 ATCC 19585; type: cell-based
[6] = tested on: Streptococcus parasanguinis KLE 2375; type: cell-based; settings: Streptococcus parasanguinis KLE 2375, anaerobic, stool isolate
[7] = tested on: Bifidobacterium longum ATCC BAA-999; type: cell-based
[8] = tested on: Bacteroides cellulosilyticus KLE 2342; type: cell-based; settings: Bacteroides cellulosilyticus KLE 2342, anaerobic, stool isolate
[9] = tested on: Parabacteroides merdae KLE 2238; type: cell-based; settings: Parabacteroides merdae KLE 2238, anaerobic, stool isolate
[10] = tested on: Lactobacillus reuteri ATCC 23272; type: cell-based
[11] = tested on: Bacteroides vulgatus KLE 2381; type: cell-based; settings: Bacteroides vulgatus KLE 2381, anaerobic, stool isolate
[12] = tested on: Bacteroides xylanisolvens KLE 2305; type: cell-based; settings: Bacteroides xylanisolvens KLE 2305, anaerobic, stool isolate
murine gut microbiome = test: Impact on the murine fecal microbiome (16S rRNA sequencing)
Method: Stool samples were collected and V4 region of the 16s rRNA gene was amplified using primers and sequenced (IonTorrent).
Fecal pellets were collected 3 days before and 3 days after antibiotic treatment and were stored at −80° C. in PBS. Sequencing of a stool pellet from each mouse from before and after treatment was performed by MR DNA (www.mrdnalab.com, Shallowater, TX, USA) on an Ion Torrent PGM. Using PCR primers, the V4 variable region of the 16SrRNA gene was amplified in a single-step 30 cycle PCR with the HotStarTaq Plus Master Mix Kit (Qiagen, USA). The following conditions were used: 94° C. for 3 minutes and 30 cycles of 94° C. for 30 seconds, 53° C. for 40 seconds and 72° C. for 1 minute, then a final elongation step for 5 minutes at 72° C. […] Barcodes and primers and then sequences<150 bp were removed. Further, sequences with homopolymer runs exceeding 6 bp and sequences with ambiguous calls were removed. The sequences were then denoised, OTUs were generated, and chimeras were removed; OTUs were clustered at 3% divergence. Taxonomic classification was performed using BLASTn against a database derived from RDPII available at www.rdp.cme.msu.edu) and NCBI (www.ncbi.nlm.nih.gov). The change in relative abundance of the most abundant genera from before to after treatment of each individual mouse was reported. Further, raw sequences were processed in Qiita (Gonzalez, A., et al. (2018). Nat Methods 15, 796-798; the contents of which are herein incorporated by reference in its entirety) and were demultiplexed, trimmed to 100 bp, and closed reference OTU picking was performed against the Greengenes database at 97% similarity (McDonald, D. et al. (2012). ISME J 6, 610-618; the contents of which are herein incorporated by reference in its entirety). The alpha diversity based on the Simpson index was calculated in Qiita. The change in the Simpson index was calculated for the fecal microbiome of each mouse from before to after treatment. Statistical significance was calculated using a one-way ANOVA with Tukey's multiple comparisons test (p<0.05).

[13] = tested on: Leptospira biflexa ATCC 23582; settings: for MIC: Leptospira biflexa
[14] = tested on: Borrelia burgdorferi BbP1286; test: microbe, parasite or virus in culture; settings: Borreliella burgdorferi, BBP1286, read-out: Minimum inhibitory concentration (MIC)
[15] = tested on: Borreliella burgdorferi 297
[16] = tested on: Borreliella burgdorferi N40
[17] = tested on: Borrelia turcica DSM 16138; settings: for MIC: Borrelia turcica
[18] = tested on: Brevinema andersonii ATCC 43811
B. burgdorferi N40 = test: Mouse infection model (IP injection, oral gavage); settings: for B. burgdorferi culture (% positive) / Mean # of B. burgdorferi/10 mg of skin tissue (qPCR): twice a day for 5 days; for Culture positive (%): C3H, 5 days, whole ear culture; for B. burgdorferi culture from mice: oral gavage twice per day
[19] = tested on: Bacteroides eggerthii KLE 2382; type: cell-based; settings: Bacteroides eggerthii KLE 2382, anaerobic, stool isolate

CO/N=C(\C(=O)N[C@@H]1C(=O)N2C(C(=O)O)=C(CSc3nc(=O)c(=O)[nH]n3C)CS[C@H]12)c1csc(N)n1 [Ceftriaxone]
MIC ([1]; KLE2428, read-out: Minimum inhibitory concentration (MIC)): 0.5 µg/mL (≈ 0.902 µM)
MIC ([2]; Clostridium perfringens, KLE2326, read-out: Minimum inhibitory concentration (MIC)): < 0.01 µg/mL
MIC ([3]; Staphylococcus aureus HG003, read-out: Minimum inhibitory concentration (MIC)): 8 µg/mL (≈ 14.4 µM)
MIC ([4]; KLE2378, read-out: Minimum inhibitory concentration (MIC)): 1 µg/mL (≈ 1.8 µM)
MIC (Escherichia coli MG1655; read-out: Minimum inhibitory concentration (MIC)): 0.06 µg/mL (≈ 0.108 µM)
MIC ([5]; Salmonella enterica, Salmonella typhimurium LT2 ATCC 19585, anaerobic, read-out: Minimum inhibitory concentration (MIC)): 0.25 µg/mL (≈ 0.451 µM)
MIC ([6]; KLE2375, read-out: Minimum inhibitory concentration (MIC)): 0.06 µg/mL (≈ 0.108 µM)
MIC ([7]; ATCCBAA999, Bifidobacterium longum ATCC BAA-999, anaerobic, read-out: Minimum inhibitory concentration (MIC)): 4 µg/mL (≈ 7.21 µM)
MIC ([8]; KLE2342, read-out: Minimum inhibitory concentration (MIC)): 128 µg/mL (≈ 231 µM)
MIC ([9]; KLE2238, read-out: Minimum inhibitory concentration (MIC)): 0.25 µg/mL (≈ 0.451 µM)
MIC ([10]; Limosilactobacillus reuteri, ATCC23272, Lactobacillus reuteri ATCC 23272, anaerobic, read-out: Minimum inhibitory concentration (MIC)): 32 µg/mL (≈ 57.7 µM)
MIC ([11]; Phocaeicola vulgatus, KLE2381, read-out: Minimum inhibitory concentration (MIC)): 128 µg/mL (≈ 231 µM)
MIC ([12]; KLE2305, read-out: Minimum inhibitory concentration (MIC)): 64 µg/mL (≈ 115 µM)
Mice with Enterococcaceae blooms (murine gut microbiome; mouse, in vivo): 5/5
MIC ([13]; ATCC23582, read-out: Minimum inhibitory concentration (MIC)): 2 µg/mL (≈ 3.61 µM)
MIC [14]: 0.01 µg/mL (≈ 0.018 µM)
MIC ([15]; Borreliella burgdorferi, 297, read-out: Minimum inhibitory concentration (MIC)): 0.01 µg/mL (≈ 0.018 µM)
MIC ([16]; Borreliella burgdorferi, N40, read-out: Minimum inhibitory concentration (MIC)): 0.01 µg/mL (≈ 0.018 µM)
MIC (Borrelia afzelii; Borreliella afzelii, read-out: Minimum inhibitory concentration (MIC)): < 0.01 µg/mL
MIC (Borrelia garinii; Borreliella garinii, read-out: Minimum inhibitory concentration (MIC)): 0.01 µg/mL (≈ 0.018 µM)
MIC (Borreliella miyamotoi; Borreliella, read-out: Minimum inhibitory concentration (MIC)): 0.01 µg/mL (≈ 0.018 µM)
MIC ([17]; DSM16138, read-out: Minimum inhibitory concentration (MIC)): 0.06 µg/mL (≈ 0.108 µM)
MIC ([18]; Brevinema andersonii, ATCC43811, read-out: Minimum inhibitory concentration (MIC)): 0.01 µg/mL (≈ 0.018 µM)
B. burgdorferi culture (% positive) (B. burgdorferi N40; 156 mg/kg, IP injection): 0%
Mean # of B. burgdorferi/10 mg of skin tissue (qPCR) (B. burgdorferi N40; 156 mg/kg, IP injection): <1 B. burgdorferi/10 mg of skin t
Culture positive (%) (B. burgdorferi N40; intraperitoneal injection, daily dose 312 mg/kg/day): 0%

Hygromycin A
Minimum inhibitory concentration (MIC) [1]: 1 µg/mL
Minimum inhibitory concentration (MIC) ([2]; Clostridium perfringens KLE 2326, anaerobic, stool isolate): 8 µg/mL
Activity against S. aureus, times lower compared to B. burgdorferi ([3]; S. aureus used in the counter-screen vs B. burgdorferi): 64 times
MIC ([3]; Staphylococcus aureus): 8 µg
Minimum inhibitory concentration (MIC) ([3]; Staphylococcus aureus HG003): 8 µg/mL
Minimum inhibitory concentration (MIC) [4]: 32 µg/mL
MIC (Escherichia coli MG1655): 128 µg
Minimum inhibitory concentration (MIC) (Escherichia coli MG1655): 128 µg/mL
MIC ([5]; Salmonella typhimurium): >128 µg
Minimum inhibitory concentration (MIC) ([5]; Salmonella typhimurium LT2 ATCC 19585, anaerobic): >128 µg/mL
Minimum inhibitory concentration (MIC) [6]: 4 µg/mL
MIC ([7]; Bifidobacterium longum): 8 µg
Minimum inhibitory concentration (MIC) ([7]; Bifidobacterium longum ATCC BAA-999, anaerobic): 8 µg/mL
Minimum inhibitory concentration (MIC) [8]: 8 µg/mL
Minimum inhibitory concentration (MIC) [9]: 16 µg/mL
MIC ([10]; Lactobacillus reuteri): 32 µg
Minimum inhibitory concentration (MIC) ([10]; Lactobacillus reuteri ATCC 23272, anaerobic): 32 µg/mL
Minimum inhibitory concentration (MIC) [11]: 64 µg/mL
Minimum inhibitory concentration (MIC) [19]: 64 µg/mL
Minimum inhibitory concentration (MIC) [12]: >128 µg/mL
Increases in Enterococcaceae or Enterobacteriaceae (murine gut microbiome; HygA 50 mg/kg oral, 5 days): did not lead to increases
Mice that maintained Bacteroidaceae levels (murine gut microbiome; HygA 50 mg/kg oral, 5 days): 1/5
Mice with decreased Bacteroidaceae (murine gut microbiome; HygA 50 mg/kg oral, 5 days): 3/5
Mice with increased Bacteroidaceae (murine gut microbiome; HygA 50 mg/kg oral, 5 days): 1/5
Overall fluctuation of Bacteroidaceae (murine gut microbiome; HygA 50 mg/kg oral, 5 days, not significantly different from untreated): −8.5 % relative abundance
Change in symbiotic Lactobacillus and Lactococcus (murine gut microbiome; after treatment): prominent increase
Changes in the composition of the microbiota (murine gut microbiome; clinically relevant doses, 16S rDNA sequencing, FIG. 8, 9A, 9B): milder
MIC [13]: 4 µg
Minimum inhibitory concentration (MIC) ([13]; Leptospira biflexa ATCC 23582): 4 µg/mL
Minimum inhibitory concentration (MIC) ([15]; Borreliella burgdorferi 297, microaerophilic): 0.25 µg/mL
Minimum inhibitory concentration (MIC) ([16]; Borreliella burgdorferi N40, microaerophilic): 0.25 µg/mL
MIC (Borrelia afzelii; B. afzelii): 0.25 µg/mL
MIC (Borrelia afzelii; Borrelia afzelii): 0.25 µg
Minimum inhibitory concentration (MIC) (Borrelia afzelii; Borreliella afzelii, microaerophilic): 0.25 µg/mL
MIC (Borrelia garinii; B. garinii): 0.25 µg/mL
MIC (Borrelia garinii; Borrelia garinii): 0.25 µg
Minimum inhibitory concentration (MIC) (Borrelia garinii; Borreliella garinii, microaerophilic): 0.25 µg/mL
Minimum inhibitory concentration (MIC) (Borreliella miyamotoi; Borreliella miyamotoi, microaerophilic): 0.25 µg/mL
MIC [17]: 0.5 µg
Minimum inhibitory concentration (MIC) ([17]; Borrelia turcica DSM 16138, microaerophilic): 0.5 µg/mL
Minimum inhibitory concentration (MIC) ([18]; Brevinema andersonii ATCC 43811, microaerophilic): 2 µg/mL
B. burgdorferi culture (% positive) (B. burgdorferi N40; 25 mg/kg, oral gavage): 50%
Mean # of B. burgdorferi/10 mg of skin tissue (qPCR) (B. burgdorferi N40; 25 mg/kg, oral gavage): <1 B. burgdorferi/10 mg of skin t
B. burgdorferi culture (% positive) (B. burgdorferi N40; 50 mg/kg, oral gavage): 0%
Mean # of B. burgdorferi/10 mg of skin tissue (qPCR) (B. burgdorferi N40; 50 mg/kg, oral gavage): <1 B. burgdorferi/10 mg of skin t
B. burgdorferi culture (% positive) (B. burgdorferi N40; 70 mg/kg, oral gavage): 0%
Mean # of B. burgdorferi/10 mg of skin tissue (qPCR) (B. burgdorferi N40; 70 mg/kg, oral gavage): <1 B. burgdorferi/10 mg of skin t
B. burgdorferi culture (% positive) (B. burgdorferi N40; 75 mg/kg, IP injection): 0%
Mean # of B. burgdorferi/10 mg of skin tissue (qPCR) (B. burgdorferi N40; 75 mg/kg, IP injection): <1 B. burgdorferi/10 mg of skin t
B. burgdorferi culture (% positive) (B. burgdorferi N40; 250 mg/kg, oral gavage): 0%
Mean # of B. burgdorferi/10 mg of skin tissue (qPCR) (B. burgdorferi N40; 250 mg/kg, oral gavage): <1 B. burgdorferi/10 mg of skin t
Culture positive (%) (B. burgdorferi N40; intraperitoneal injection, daily dose 100 mg/kg/day): 0%
Culture positive (%) (B. burgdorferi N40; oral gavage, daily dose 50 mg/kg/day): 50%
Culture positive (%) (B. burgdorferi N40; oral gavage, daily dose 100 mg/kg/day): 0%
Culture positive (%) (B. burgdorferi N40; oral gavage, daily dose 140 mg/kg/day): 0%
Culture positive (%) (B. burgdorferi N40; oral gavage, daily dose 500 mg/kg/day): 0%
Clearance of infection (B. burgdorferi N40; IP injection twice a day, after 5 days of treatment, similarly to ceftriaxone control): cleared the infection
B. burgdorferi culture from mice (B. burgdorferi N40; 10 and 25 mg/kg): B. burgdorferi were cultured from mice
B. burgdorferi culture from mice (B. burgdorferi N40; doses higher than 25 mg/kg): not at any of the higher doses
PCR from ear, joint and heart tissue (B. burgdorferi N40; oral gavage, doses above 50 mg/kg): negative
